Legend:
[1] = test system: osteoblastic cell strain MC3T3-E1; test: Calcified matrix formation (alizarin red) of cultured osteoblastic cell on differentiation medium; type: cell-based, mouse
Experimental: Using an osteoblastic cell strain MC3T3-E1 originating from a mouse skull bone, an action to osteoblactic cell differentiation was checked. MC3T3-E1 cell was cultured on α-MEM (growth medium) containing 5% fetal bovine serum (FBS) and 10 μg/ml gentamicin. When the cell became confluent, the cell was collected using 0.25% trypsin solution, and was subjected to seeding to a 48-well plate at 1×10^4/0.5 mL/well with the growth medium. After 24 hours passed from the cultivation, the culture medium was replaced with a growth medium (differentiation medium) containing 50 μg/mL ascorbic acid, 10 mmol/L β-glycerosphoric acid, and 10 nmol/L dexamethasone. At the same time, CS-A, CS-B, CS-C, CS-E, CS-H or CPS was added to the medium. After 16 days passed from when the medium was replaced with the differentiation medium, a culture supernatant was eliminated, the cell was rinsed by PBS (−), dissolved by 1% Nonidet P-40 (NP-40, registered trademark), and a cell lysate was collected. The cell on a plate was fixed by 15% formalin, a calcified matrix was dyed by 40 mmol/L alizarin red dyeing (pH 4.2)[…], and rinsed by pure water. Alizarin red pigments in the plate were dissolved by 10% formic acid, and light absorption at a wavelength of 415 nm was observed.
An osteoblastic cell strain MC3T3-E1 was cultured on α-MEM (growth medium) containing 5 FBS and 10 μg/mL gentamicin. When the cell became confluent, the cell was collected by 0.25 trypsin solution, and was subjected to seeding to a 96-well plate at 1×10^4/0.2 mL/well with the growth medium. After 24 hours incubation, the culture medium was replaced with a growth medium (differentiation medium) containing 50 μg/mL ascorbic acid, 10 mmol/L β-glycerophosphoric acid, and 10 nmol/L dexamethasone. At the same time, CS-A, CS-C or CS-D dissolved and diluted by a phosphate buffered saline (PBS (−)) was added to the medium. After 10 days passed from when the medium was replaced with the differentiation medium, a culture supernatant was eliminated, the cell was rinsed by PBS (−), and dissolved by 1% NP-40 (registered trademark), and a cell lysate was collected. The cell on the plate was fixed by 15% formalin, a calcified matrix was dyed by 40 mmol/L alizarin red dyeing (pH 4.2) liquid, and then rinsed by pure water. Alizarin red pigments in the plate were dissolved by 10% formic acid, and light absorption at a wavelength of 415 nm was observed.

[2] = test system: osteoblastic cell strain MC3T3-E1; test: Alkaline phosphatase (ALP) activity of cultured osteoblastic cell; type: cell-based, mouse; settings: MC3T3-E1, differentiation medium, 8 days, p-NP amount (FIG. 3)
Experimental: An osteoblastic cell strain MC3T3-E1 was cultured on α-MEM (growth medium) containing 5% FBS and 10 μg/mL gentamicin. When the cell became confluent, the cell was collected by 0.25 trypsin solution, and was subjected to seeding to a 48-well plate at 8×10^4/0.5 mL/well with the growth medium. After 24 hours incubation, the culture medium was replaced with a growth medium (differentiation medium) containing 50 μg/mL ascorbic acid, 10 mmol/L β-glycerophosphoric acid, and 10 nmol/L dexamethasone. At the same time, CS-C or CS-E used in the first example was dissolved and diluted by a phosphate buffered saline (PBS (−)), and then added to the medium. After 8 days passed from when the medium was replaced with the differentiation medium, a culture supernatant was eliminated, the cell was rinsed by PBS (−), and dissolved by 1% NP-40 (registered trademark), and a cell lysate was collected.
Regarding alkaline phosphatase (ALP) activity, a p-nitrophenol (p-NP) amount created by mixing the cell lysate with p-nitrophenylphosphate (Sigma) and by performing incubation on it for 10 minutes at 37° C. was measured at OD 415 nm, and a p-NP amount was calculated from an analytical curve.

[3] = test system: osteoblastic cell strain MC3T3-E1; test: Growth of cultured osteoblastic cell (DNA amount, PicoGreen); type: cell-based, mouse; settings: MC3T3-E1, differentiation medium, 16 days (FIG. 4)
Experimental: An osteoblastic cell strain MC3T3-E1 was cultured on α-MEM (growth medium) containing 5% FBS and 10 μg/mL gentamicin. When the cell became confluent, the cell was collected by 0.25% trypsin solution, and was subjected to seeding to a 96-well plate at 4×10^4/0.2 mL/well with the growth medium. After 24 hours incubation, the culture medium was replaced with a growth medium (differentiation medium) containing 50 μg/mL ascorbic acid, 10 mmol/L β-glycerophosphoric acid, and 10 nmol/L dexamethasone. At the same time, CS-A, CS-C, CS-D or CS-E used in the first example and the second example was dissolved and diluted by a phosphate buffered saline (PBS (−)), and then added to the medium. After 16 days passed from when the medium was replaced with the differentiation medium, a culture supernatant was eliminated, the cell was rinsed by PBS (−), and dissolved by 1% NP-40, and a cell lysate was collected.
Regarding a measurement of a DNA amount, PicoGreen dsDNA Quantitation kit (made by Molecular Probes corporation) was used, and a DNA amount was measured from a fluorescence intensity (Ex: wavelength 485 nm, Em: wavelength 535 nm) with a Calf Thymus DNA (Sigma) being as a standard.

MC3T3-E1 cell [4] = test: Calcification of osteoblastic cell cultured on calcium phosphate (OCP or HA coating); type: cell-based, mouse
Experimental: (§1) Octacalcium phosphate (OCP) and hydroxyapatite (HA, apaceram, made by pentax corporation) were broken into powders by a mortar, and powders which passed through a stainless mesh (pore size: 53 μm) were used for the test. 1 mg of OCP or HA powders were suspended in 1 mL of distilled water, and added to a 48-well plate 150 μL by 150 μL (0.15 mg/well). It was dried for one night at 80° C. by a dryer, sterilized by 70% ethanol, and used for the test.
(§2) An MC3T3-E1 cell was cultured on α-MEM (growth medium) containing 5% FBS and 10 μg/mL gentamicin. When the cell became confluent, the cell was collected by 0.25 trypsin solution, and was subjected to seeding to a 48-well plate at 8×10^4/0.5 […] with the growth medium. […] Regarding a measurement of a DNA amount, PicoGreen dsDNA Quantitation kit (made by Molecular Probes corporation) was used, and a DNA amount was measured from a fluorescence intensity (Ex: wavelength 485 nm, Em: wavelength 535 nm) with a Calf Thymus DNA (Sigma) being as a standard.
Regarding an evaluation of calcification, a calcified matrix produced by the cell on the plate was fixed by 15% formalin, dyed by 40 mmol/L alizarin red dyeing (pH 4.2) liquid, rinsed by deionization water, dissolved by 10% formic acid, and then light absorption was measured.

MC3T3-E1 cell [5] = test: Growth of osteoblastic cell cultured on calcium phosphate (OCP or HA coating), DNA amount; type: cell-based, mouse
Experimental: as §1
as §2, with “medium. After 24 hours incubation, the culture medium was replaced with a growth medium (differentiation medium) containing 50 μg/mL ascorbic acid, 10 mmol/L β-glycerophosphoric acid, and 10 nmol/L dexamethasone, while at the same time CS-E was added.” for “medium.”

[6] = test system: swine knee joint cartilage cell; test: Collagen synthesis of cultured cartilage cell in alginate gel beads (three-dimensional culturing); type: cell-based; settings: 100 μg/mL
Excerpt: A cartilage cell was separated from a swine knee joint cartilage as follow. A posterior leg of an LWD-kind pig about 1-year-old was purchased from SIMODA animal industry limited private company. After a knee joint was exposed, a joint cartilage of a femur was acquired aseptically. Thereafter, a cell originating from a joint cartilage (hereinafter, “cartilage cell”) was separated in accordance with a technique of Mok S. S. et al (J. Biol. Chem., 1994, 269, 33021 to 33027) while modifying some parts of such a technique.
The acquired cartilage was put into DMEM/F-12 culture medium (a culture medium which contained Dulbecco's modified eagle and Ham's F12 at 1:1) containing 0.4% actinase (made by KAKEN pharmaceutical corporation) and 10 μg/mL gentamicin (made by Invitrogen corporation), and processed for 1 hour at 37° C. while being stirred by a stirrer under a condition where 5% of CO2 was present. After the culture medium was eliminated, a culture media containing 0.025% collagenase (made by Roche corporation) and 5% FBS (made by Biological Industries corporation) was added to a residue, and it was digested for 16 hours at 37° C. under the presence of 5% of CO2. After digested, the cell was rinsed, collected by 70 μm cell strainer (made by Becton Dickinson corporation), and a number of cells were measured using a counting chamber. […]

[7] = 16th day of cultivation, 48-well plate, absorption 415 nm (FIG. 1)
[8] = 10 days, 96-well plate, absorption 415 nm (FIG. 2)

Substance	formation of a calcified matrix dyed by alizarin red [1, 7]	formation of a calcified matrix dyed by alizarin red [1, 8]	growth of an osteoblastic cell (DNA amount) [3]	further results
chondroitin sulfate C [CS-C, reference compound]	not observed	not observed	not observed	ALP activity (osteoblastic cell differentiation marker) [2]: not observed
polysulfated chondroitin sulfate [CPS]	significantly promoted			
chondroitin sulfate D [CS-D]		significantly promoted	not observed	
Chondroitin sulfate A [CS-A]	not observed	not observed	not observed	
chondroitin sulfate E [CS-E]	significantly promoted		significantly promoted	ALP activity (osteoblastic cell differentiation marker) [2]: significantly enhanced; production of a calcified matrix dyed by alizarin red (MC3T3-E1 cell [4]; HA coating, 12th day of cultivation (FIG. 5B)): promoted production of a calcified matrix; production of a calcified matrix dyed by alizarin red (MC3T3-E1 cell [4]; OCP coating, 16th day of cultivation (FIG. 5A)): promoted production of a calcified matrix; growth of an osteoblastic cell (DNA amount) (MC3T3-E1 cell [5]; HA coating (FIG. 6B)): not significant but a cell growth promoting action was observed; growth of an osteoblastic cell (DNA amount) (MC3T3-E1 cell [5]; OCP coating, 16th day of cultivation (FIG. 6A)): significantly promoted; collagen content per twenty alginate gel beads ([6]; 6 days three-dimensional culturing (FIG. 7)): significantly increased; collagen content per DNA ([6]; 6 days three-dimensional culturing (FIG. 8)): significantly increased
chondroitin sulfate B [CS-B]	not observed			
chondroitin sulfate H [CS-H]	significantly promoted			

— patent US20110129544A1, “Bone/Cartilage Formation-Stimulation Agent” (priority 2007, published 2011)
